Laboratory results taken from ChEMBL document CHEMBL1201862, “PubChem BioAssay data set” (2004).
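Values below derive from 48-hour exposures of cells grown in 96-well plates, with endpoints linearly interpolated between the two concentrations bracketing the appropriate inhibition level. Here, GI50 denotes the concentration required for 50% inhibition of growth.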 Calls of active or inactive are those of the source. Rule as the data show it: active = GI50 up to about 1.1 µM and inactive = higher. Where a SMILES comes first, the peptide text is derived from it. [ ]: non-standard residue; d: D form. The star is where a group is joined. ξ: configuration not given here. ξD = NC(CC(=O)O)C(=O)O; Ac3c = NC1(C(=O)O)CC1; Boc = CC(C)(C)OC(=O)*; OBn = c1ccc(CO*)cc1

Legend:
Assay in all cases: inhibition of tumour cell growth, NCI panel, 48 h
786-0 = system: 786-0
A498 = system: A498
A549 = system: A549
ACHN = system: ACHN
BT-549 = system: BT-549
CAKI-1 = system: CAKI-1
CCRF-CEM = system: CCRF-CEM
COLO 205 = system: COLO 205
DU-145 = system: DU-145
EKVX = system: EKVX
HCT-116 = system: HCT-116
HCT-15 = system: HCT-15
HOP-62 = system: HOP-62
HOP-92 = system: HOP-92
HT-29 = system: HT-29
Hs-578T = system: Hs-578T
IGROV-1 = system: IGROV-1
K562 = system: K562
KM12 = system: KM12
LOX IMVI = system: LOX IMVI
M14 = system: M14
MCF7 = system: MCF7
MDA-MB-231 = system: MDA-MB-231
MDA-MB-435 = system: MDA-MB-435
MDA-N = system: MDA-N
MOLT-4 = system: MOLT-4
Malme-3M = system: Malme-3M
NCI-H226 = system: NCI-H226
NCI-H23 = system: NCI-H23
NCI-H460 = system: NCI-H460
NCI-H522 = system: NCI-H522
NCI/ADR-RES = system: NCI/ADR-RES
OVCAR-3 = system: OVCAR-3
OVCAR-4 = system: OVCAR-4
OVCAR-5 = system: OVCAR-5
OVCAR-8 = system: OVCAR-8
PC-3 = system: PC-3
RPMI-8226 = system: RPMI-8226
RXF 393 = system: RXF 393
SF-268 = system: SF-268
SF-295 = system: SF-295
SF-539 = system: SF-539
SK-MEL-28 = system: SK-MEL-28
SK-MEL-2 = system: SK-MEL-2
SK-MEL-5 = system: SK-MEL-5
SK-OV-3 = system: SK-OV-3
SN12C = system: SN12C
SNB-19 = system: SNB-19
SNB-75 = system: SNB-75
SW-620 = system: SW-620
T47D = system: T47D
TK-10 = system: TK-10
U-251 = system: U-251
UACC-257 = system: UACC-257
UACC-62 = system: UACC-62
UO-31 = system: UO-31

In the case of `COC(=O)C1(NC(=O)C(CC(=O)OCc2ccccc2)NC(=O)OC(C)(C)C)CC1` (stereo unspecified) (Boc-[ξD](OBn)-[Ac3c]-OMe), the GI50 (786-0) is reported as > 100 µM (inactive), the GI50 (A498) is reported as > 100 µM (inactive) and the GI50 (A549) is reported as > 100 µM (inactive). For the same molecule, the GI50 (ACHN) was > 100 µM (inactive), the GI50 (BT-549) was > 100 µM (inactive) and the GI50 (CAKI-1) was > 100 µM (inactive). For the same molecule, the GI50 (CCRF-CEM) was > 100 µM (inactive), the GI50 (COLO 205) was > 100 µM (inactive) and the GI50 (DU-145) was > 100 µM (inactive). For the same molecule, the GI50 (EKVX) was > 100 µM (inactive), the GI50 (HCT-116) was > 100 µM (inactive) and the GI50 (HCT-15) was over 100 µM. For the same molecule, the GI50 (HOP-62) was > 100 µM (inactive), the GI50 (HOP-92) was > 100 µM (inactive) and the GI50 (HT-29) was > 100 µM (inactive). The GI50 (Hs-578T) was > 100 µM (inactive), the GI50 (IGROV-1) was > 100 µM (inactive) and the GI50 (K562) was > 100 µM (inactive). For the same molecule, the GI50 (KM12) was > 100 µM (inactive), the GI50 (LOX IMVI) was > 100 µM (inactive) and the GI50 (M14) was > 100 µM (inactive). The GI50 (MCF7) was > 100 µM (inactive), the GI50 (MDA-MB-231) was > 100 µM (inactive) and the GI50 (MDA-MB-435) was > 100 µM (inactive). The GI50 (MDA-N) was > 100 µM (inactive), the GI50 (MOLT-4) was > 100 µM (inactive) and the GI50 (Malme-3M) was > 100 µM (inactive). For the same molecule, the GI50 (NCI-H226) was > 100 µM (inactive), the GI50 (NCI-H23) was > 100 µM (inactive) and the GI50 (NCI-H460) was > 100 µM (inactive). The GI50 (NCI-H522) was > 100 µM (inactive), the GI50 (NCI/ADR-RES) was > 100 µM (inactive) and the GI50 (OVCAR-3) was > 100 µM (inactive). The GI50 (OVCAR-4) was > 100 µM (inactive), the GI50 (OVCAR-5) was > 100 µM (inactive) and the GI50 (OVCAR-8) was > 100 µM (inactive). The GI50 (PC-3) was > 100 µM (inactive), the GI50 (RPMI-8226) was > 100 µM (inactive) and the GI50 (RXF 393) was > 100 µM (inactive). The GI50 (SF-268) was > 100 µM (inactive), the GI50 (SF-295) was > 100 µM (inactive) and the GI50 (SF-539) was > 100 µM (inactive). The GI50 (SK-MEL-28) was > 100 µM (inactive), the GI50 (SK-MEL-2) was > 100 µM (inactive) and the GI50 (SK-MEL-5) was > 100 µM (inactive). The GI50 (SK-OV-3) was 19.6 µM (inactive), the GI50 (SN12C) was > 100 µM (inactive) and the GI50 (SNB-19) was > 100 µM (inactive). For the same molecule, the GI50 (SNB-75) was > 100 µM (inactive), the GI50 (SW-620) was > 100 µM (inactive) and the GI50 (T47D) was > 100 µM (inactive). For the same molecule, the GI50 (TK-10) was > 100 µM (inactive), the GI50 (U-251) was > 100 µM (inactive) and the GI50 (UACC-257) was > 100 µM (inactive). For the same molecule, the GI50 (UACC-62) was 1.58 µM (inactive) and the GI50 (UO-31) was > 100 µM (inactive).
